Laboratory results published in patent publication US11576979B2, “Pyrrolobenzodiazepine prodrugs and antibody conjugates thereof” (GENENTECH, INC., priority 2016, dated 2023).
Values joined by “and” are separate entries in the source; they are usually repeats but may differ in a detail not shown here. Identical values can stand only once.

Assays:
[1] = Disulfide cleavage by cysteine, LC/MS; format: physicochemical; details: 15 uM compound, 0.2 mM cysteine, pH 7.0, 37 C
Method: (§1) For disulfide cleavage determination, the compounds were incubated at 15 μM with 0.2 mM cysteine or 4 mM GSH in 100 mM Tris buffer pH 7.0 containing 5% methanol at 37° C. Aliquots were taken at specified time points and the samples were analyzed by LC/MS on Sciex TripleTOF 5600 on a Hypersil Gold C18 column (100×2.1, 1.9 Thermo Scientific). The column was eluted by a gradient of buffer A (0.1% formic acid in 10 mM ammonium acetate) to buffer B (0.1% formic acid in 10 mM ammonium acetate in 90% acetonitrile), 5% B 0-0.5 min, 5-25% B 0.5-8 min, 25-75% B 8-13 min, and 75-95% B 13-13.5 min, 95% B 13.5-14.5 min, 95-5% B 14.5-15 min at 0.4 mL/min. All products were separated and characterized by LC/MS/MS in a positive ESI ion mode. All analytes had the protonated molecular MH+ as the major species with little source fragmentation. Full scan accurate mass peak areas were used to estimate relative abundance of each component.

[2] = Disulfide cleavage by glutathione (GSH), LC/MS; format: physicochemical; details: 15 uM compound, 4 mM GSH, pH 7.0, 37 C
Method: as §1

UACC-257 = test: CellTiter-Glo toxicity, 4 days (Example 9); format: cell-based; details: 4 days of drug incubation, Table 7A
Method: (§2) The toxicity of various PBD monomer disulfide prodrugs and PBD dimer disulfide prodrugs was evaluated on UACC-257, Igrov-1 and A2058 cell lines. Cells were seeded in 384-well plate and treated with drug 24 hours later. After 4 days of drug incubation, the cell viability was determined using Promega CellTiter-Glo luminescent reagent, which measures ATP level (an indirect measure of cell number). The luminescent intensity was measured on PerkinElmer Envision reader. The relative cell viability was calculated by normalizing to non-drug treatment control and was graphed using KleidaGraph software package. IC50 value was determined as the concentration to obtain 50% of the maximum cell killing.

Igrov-1 = test: CellTiter-Glo toxicity, 4 days (Example 9); format: cell-based; details: 4 days of drug incubation, Table 7A
Method: as §2

A2058 = test: CellTiter-Glo toxicity, 4 days (Example 9); format: cell-based; details: 4 days of drug incubation, Table 7A
Method: as §2

| SMILES | % Remaining at 24 h by Cys [1] | % Remaining at 24 h by GSH [2] | IC50 (UACC-257; Homo sapiens, UACC-257, 96 h) | IC50 (Igrov-1; Homo sapiens, IGROV-1, 96 h) | IC50 (A2058; Homo sapiens, A2058, 96 h) | IC50 (UACC-257) | IC50 (Igrov-1) | IC50 (A2058) | % Remaining at 4 h by Cys ([1]; 4 h) |
| --- | --- | --- | --- | --- | --- | --- | --- | --- | --- |
| C=C1C[C@H]2C(O)N(C(=O)OCC3(SSCC)CC3)c3cc(OC)c(OC)cc3C(=O)N2C1 (stereo partly shown) [PBD monomer disulfide prodrug 17] | 34.9% | 0% | – | – | – | – | – | – | – |
| C=C1C[C@H]2C(O)N(C(=O)OC[C@@H](C)SSC(C)C)c3cc(OC)c(OC)cc3C(=O)N2C1 (stereo partly shown) [PBD monomer disulfide prodrug 15] | 99.2% and 90.8% | – | 1.5 µM | 0.928 µM | 0.304 µM | – | – | – | – |
| C=C1C[C@H]2C(O)N(C(=O)OCC3(SSCC)CCOC3)c3cc(OC)c(OC)cc3C(=O)N2C1 (single isomer, unassigned) [PBD monomer disulfide prodrug 30] | 47.1% | 0% | – | – | – | 0.308 µM | 0.235 µM | 0.108 µM | – |
| C=C1C[C@H]2C(O)N(C(=O)OCCSSC(C)(C)C)c3cc(OC)c(OC)cc3C(=O)N2C1 (stereo partly shown) [PBD monomer disulfide prodrug 16] | 98.6% | 73.2% | 19.5 µM | 18.5 µM | 5.59 µM | – | – | – | – |
| C=C1C[C@H]2C(O)N(C(=O)OCC(C)(C)SSCC)c3cc(OC)c(OC)cc3C(=O)N2C1 (stereo partly shown) [PBD monomer disulfide prodrug 14] | 68.1% | 3% | – | – | – | – | – | – | – |
| C=C1C[C@H]2C(O)N(C(=O)OCC(CN(C)C)SSC(C)C)c3cc(OC)c(OC)cc3C(=O)N2C1 (stereo partly shown) [PBD monomer disulfide prodrug 20] | 0% | 0% | – | – | – | – | – | – | 34% |
| C=C1C[C@H]2C(O)N(C(=O)OCC3(SSCC(=O)O)CCC3)c3cc(OC)c(OC)cc3C(=O)N2C1 (stereo partly shown) [PBD monomer disulfide prodrug 9] | 81.1% | 1% | 2.11 µM | 1.05 µM | 0.292 µM | – | – | – | – |
| C=C1C[C@H]2C(O)N(C(=O)OCC3(SSCC)CCCCC3)c3cc(OC)c(OC)cc3C(=O)N2C1 (stereo partly shown) [PBD monomer disulfide prodrug 18] | 75.3% | 18.7% | – | – | – | – | – | – | – |
| C=C1C[C@H]2C(O)N(C(=O)OC[C@@H](C)SSCC)c3cc(OC)c(OC)cc3C(=O)N2C1 (stereo partly shown) [PBD monomer disulfide prodrug 12] | 72.7% | 9.5% | 0.156 µM | 0.0836 µM | 0.0311 µM | – | – | – | – |
| C=C1C[C@H]2C(O)N(C(=O)OCCSSC3CCCC3)c3cc(OC)c(OC)cc3C(=O)N2C1 (stereo partly shown) [PBD monomer disulfide prodrug 28] | 62.2% | 0% | 2.1 µM | 2.3 µM | 0.92 µM | – | – | – | – |
| C=C1C[C@H]2C(O)N(C(=O)OCC3(SSC(C)C)CC3)c3cc(OC)c(OC)cc3C(=O)N2C1 (stereo partly shown) [PBD monomer disulfide prodrug 7] | 96.1% | 89.7% | > 30 µM | > 30 µM | 11 µM | – | – | – | – |
| C=C1C[C@H]2C(O)N(C(=O)OC[C@@H](C)SSC3COC3)c3cc(OC)c(OC)cc3C(=O)N2C1 (stereo partly shown) [PBD monomer disulfide prodrug 26] | 29.1% | 0% | 0.328 µM | 0.246 µM | 0.0845 µM | – | – | – | – |
| C=C1C[C@H]2C(O)N(C(=O)OCCSSCCO)c3cc(OC)c(OC)cc3C(=O)N2C1 (stereo partly shown) [PBD monomer disulfide prodrug 29] | 0% | 0% | 0.142 µM | 0.0578 µM | 0.0291 µM | – | – | – | – |
| C=C1C[C@H]2C(O)N(C(=O)OCc3ccc(SSC(C)C)cc3)c3cc(OC)c(OC)cc3C(=O)N2C1 (stereo partly shown) [PBD monomer disulfide prodrug 19] | 4.4% | 0% | 0.147 µM | 0.0774 µM | 0.0377 µM | – | – | – | – |
| C=C1C[C@H]2C(O)N(C(=O)OCC3(SSCC)CCOC3)c3cc(OC)c(OC)cc3C(=O)N2C1 (single isomer, unassigned) [PBD monomer disulfide prodrug 11] | 14.4% | 0% | 0.331 µM | 0.207 µM | 0.108 µM | – | – | – | – |
| C=C1C[C@H]2C(O)N(C(=O)OCC3(SSCCO)CCOC3)c3cc(OC)c(OC)cc3C(=O)N2C1 (stereo partly shown) [PBD monomer disulfide prodrug 22] | 1.4% | 0% | 0.0806 µM | 0.0398 µM | 0.0237 µM | – | – | – | – |
| C=C1C[C@H]2C(O)N(C(=O)OCC(C)(C)SSC(C)C)c3cc(OC)c(OC)cc3C(=O)N2C1 (stereo partly shown) [PBD monomer disulfide prodrug 10] | 99.4% | 88.5% | 4.73 µM | 4.81 µM | 1.83 µM | – | – | – | – |
| C=C1C[C@H]2C(O)N(C(=O)OC[C@@H](C)SSC(C)(C)C)c3cc(OC)c(OC)cc3C(=O)N2C1 (stereo partly shown) [PBD monomer disulfide prodrug 13] | 99.9% | 98.8% | > 10 µM | > 10 µM | > 10 µM | – | – | – | – |
| C=C1C[C@H]2C(O)N(C(=O)OCC(COC)SSC(C)C)c3cc(OC)c(OC)cc3C(=O)N2C1 (stereo partly shown) [PBD monomer disulfide prodrug 21] | 74.7% | 0% | – | – | – | – | – | – | – |
| C=C1C[C@H]2C(O)N(C(=O)OCC3(SSCCO)CCCC3)c3cc(OC)c(OC)cc3C(=O)N2C1 (stereo partly shown) [PBD monomer disulfide prodrug 8] | 86.7% | 0.5% | 0.194 µM | 0.172 µM | 0.0472 µM | – | – | – | – |
| C=C1C[C@H]2C(O)N(C(=O)OCCSSCCC(=O)O)c3cc(OC)c(OC)cc3C(=O)N2C1 (stereo partly shown) [PBD monomer disulfide prodrug 27] | – | 0% | 0.939 µM | 0.958 µM | 0.261 µM | – | – | – | – |
| C=C1C[C@H]2C(O)N(C(=O)OC[C@@H](C)SSC3CCOCC3)c3cc(OC)c(OC)cc3C(=O)N2C1 (stereo partly shown) [PBD monomer disulfide prodrug 24] | 0.1% | 0% | 2.69 µM | 1.48 µM | 0.596 µM | – | – | – | – |
